Experimental data published in the NIST ThermoML archive (doi:10.1016/j.jct.2013.12.024).
± gives the expanded uncertainty stated by the source.

Conditions: 298.15 K; 101.33 kPa; Liquid; Vibrating tube method

mass density [kg/m3]	SMILES
873.38 ± 0.3	CCCCCCCl [1-chlorohexane]
873.45 ± 0.11	c1ccccc1 [benzene]

SMILES	mass density [kg/m3]
Clc1cccc(Cl)c1 [1,3-dichlorobenzene]	1282.87 ± 0.61
